Columns and labels:
[1] = tested on: Lp(a) production in HepG2^K17 cells; assay: LPA3 screen: inhibition of Lp(a) production in transfected HepG2 cells, Lp(a) in media by ELISA; assay type: cell-based; settings: Homo sapiens, 8 hours, 0.3 to 50 μM compound, Lp(a) normalized for total protein, read-out: Lp A3 IC50
Description: The LPA3 screen is used to identify compounds that inhibit Lp(a) production. This screen employs permanently transfected HepG2 cells (HepG2^K17) that are generated using an apo(a) 17-kringle cDNA expression construct (pcDNA-AMP, In Vitrogen, Carlsbad, Calif.) in accordance with methods that are well-known in molecular biology.
HepG2^K17 cells are seeded in 96-well plates at a density of 75,000 cells per well in 0.25 mL of Dulbecco's Modified Eagle Media (DMEM) containing 10% fetal bovine serum (FBS). Seeded plates are incubated overnight in a 37° C., 5% CO2/95% 02 incubator. The media is removed, replaced with (1) fresh media, or (2) fresh media plus 0.3 to 50 μM of a compound of the present invention in 20 μL of PBS, and the plates returned to the incubator for 8 hours. After the additional 8 hours of incubation, Lp(a) is assayed in the media by ELISA. Cells are digested with 0.5N NaOH overnight and assayed for total protein. Lp(a) values are normalized for total protein content.

[2] = target: apolipoprotein(a), [apo(a)], apolipoproteinB-100, [apoB-100], coupling reaction that generates Lp(a) (Homo sapiens, UniProt P04114+P08519); assay: LPABC screen: lipoprotein(a) biochemical coupling assay, Lp(a) content by ELISA; settings: recombinant apo(a) 17-kringle (293 cell media) + HepG2 conditioned media, 67 minutes, 37° C., 0.3 to 50 μM compound; read-out: Lp ABC IC50
Description: LPABC Screen The lipoprotein(a), [Lp(a)], biochemical coupling assay (LPABC) is used to characterize inhibitors of the apolipoprotein(a), [apo(a)], apolipoproteinB-100, [apoB-100], coupling reaction that generates Lp(a). Conditioned media from 293 cells (ATCC CRL-1573), permanently transfected with an apo(a) 17-kringle cDNA expression construct (pcDNA-AMP, In Vitrogen, Carlsbad, Calif.) using standard molecular biology techniques, was used as a source of recombinant apo(a) is diluted 1:3 with phosphate buffered saline (PBS) and 90 μL is pipetted into each well of a 96-well plate and placed into a 37° C. incubator for 10 minutes. Twenty microliters of a 0.3 to 50 μM solution of a compound of the present invention in PBS is added to the warmed plate. Ninety microliters of HepG2 (ATCC HB-8065) cell conditioned media diluted 1:3 with PBS is added to the apo(a)/compound mixture and mixed by pipetting up and down 5 times. The reaction is incubated for 67 minutes in a 37° C. incubator. A 100 μL aliquot of the reaction is removed and assayed for its Lp(a) content by an enzyme linked immunosorbent assay (ELISA).

| IC50 [2] [µM] | Compound | IC50 [1] [µM] |
| --- | --- | --- |
| > 50 | CC(C)c1ccc(C(=O)N(Cc2ccc3c(c2)C(C)(C)CCC3(C)C)c2cccnc2)cc1 [Example 68, 4-Isopropyl-N-pyridin-3-yl-N-(5,5,8,8-tetramethyl-5,6,7,8-tetrahydro-naphthalen-2-ylmethyl)-benzamide] | 39.8 |
| > 50 | COc1cccc(CN(C(=O)c2ccc(C(C)C)cc2)c2cccnc2)c1 [Example 69, 4-Isopropyl-N-(3-methoxy-benzyl)-N-pyridin-3-yl-benzamide] | 18.8 |
| > 50 | CC(C)c1ccc(C(=O)N(Cc2ccc3ccccc3c2)c2cccnc2)cc1 [Example 70, 4-Isopropyl-N-naphthalen-2-ylmethyl-N-pyridin-3-yl-benzamide] | 7.2 |
| > 50 | CC(C)c1ccc(C(=O)N(Cc2ccc(C(C)(C)C)cc2)c2cccnc2)cc1 [Example 71, N-(4-tert-Butyl-benzyl)-4-isopropyl-N-pyridin-3-yl-benzamide] | 43 |
| > 50 | CC(C)c1ccc(C(=O)N(Cc2ccccc2-c2ccccc2)c2cccnc2)cc1 [Example 72, N-Biphenyl-2-ylmethyl-4-isopropyl-N-pyridin-3-yl-benzamide] | 37.1 |
| > 50 | CCOc1ccccc1C(=O)N(Cc1ccc2c(c1)C(C)(C)CCC2(C)C)c1cccnc1 [Example 73, 2-Ethoxy-N-pyridin-3-yl-N-(5,5,8,8-tetramethyl-5,6,7,8-tetrahydro-naphthalen-2-ylmethyl)-benzamide] | 10 |
| > 50 | CCOc1ccccc1C(=O)N(Cc1cc(C(C)(C)C)cc(C(C)(C)C)c1)c1cccnc1 [Example 74, N-(3,5-Di-tert-butyl-benzyl)-2-ethoxy-N-pyridin-3-yl-benzamide] | 11.6 |
| > 50 | CCOc1ccccc1C(=O)N(Cc1cc(Br)cc(Br)c1)c1cccnc1 [Example 75, N-(3,5-Dibromo-benzyl)-2-ethoxy-N-pyridin-3-yl-benzamide] | 14.9 |
| > 50 | CCOc1ccccc1C(=O)N(Cc1ccc(OC)cc1)c1cccnc1 [Example 76, 2-Ethoxy-N-(4-methoxy-benzyl)-N-pyridin-3-yl-benzamide] | 33.3 |
| > 50 | CCOc1ccccc1C(=O)N(Cc1cccc(OC)c1)c1cccnc1 [Example 77, 2-Ethoxy-N-(3-methoxy-benzyl)-N-pyridin-3-yl-benzamide] | 44.5 |
| > 50 | CCOc1ccccc1C(=O)N(Cc1ccc(Cl)c(Cl)c1)c1cccnc1 [Example 78, N-(3,4-Dichloro-benzyl)-2-ethoxy-N-pyridin-3-yl-benzamide] | 10.3 |
| > 50 | CCOc1ccccc1C(=O)N(Cc1ccc2ccccc2c1)c1cccnc1 [Example 79, 2-Ethoxy-N-naphthalen-2-ylmethyl-N-pyridin-3-yl-benzamide] | 17 |
| > 50 | CCOc1ccccc1C(=O)N(Cc1ccc(C(C)(C)C)cc1)c1cccnc1 [Example 80, N-(4-tert-Butyl-benzyl)-2-ethoxy-N-pyridin-3-yl-benzamide] | 19.2 |
| > 50 | CCOc1ccccc1C(=O)N(Cc1ccccc1-c1ccccc1)c1cccnc1 [Example 81, N-Biphenyl-2-ylmethyl-2-ethoxy-N-pyridin-3-yl-benzamide] | 0.9 |
| > 50 | COc1ccccc1N(Cc1ccc2ccccc2c1)C(=O)c1ccccc1 [Example 85, N-(2-Methoxy-phenyl)-N-naphthalen-2-ylmethyl-benzamide] | 10.2 |
| > 50 | COc1ccc(CN(C(=O)c2ccccc2)c2ccccc2OC)cc1 [Example 86, N-(4-Methoxy-benzyl)-N-(2-methoxy-phenyl)-benzamide] | 30.1 |

| IC50 [2] [µM] | Compound | IC50 [1] [µM] |
| --- | --- | --- |
| > 50 | COc1cccc(CN(C(=O)c2ccccc2)c2ccccc2OC)c1 [Example 87, N-(3-Methoxy-benzyl)-N-(2-methoxy-phenyl)-benzamide] | 19.2 |
| > 50 | COc1ccccc1N(Cc1ccccc1-c1ccccc1)C(=O)c1ccccc1 [Example 88, N-Biphenyl-2-ylmethyl-N-(2-methoxy-phenyl)-benzamide] | 16.5 |
| > 50 | CCN(CC)CCCc1ccc(N(Cc2ccc3c(c2)C(C)(C)CCC3(C)C)C(=O)c2ccccc2)cc1 [Example 89, N-[4-(3-Diethylamino-propyl)-phenyl]-N-(5,5,8,8-tetramethyl-5,6,7,8-tetrahydro-naphthalen-2-ylmethyl)-benzamide] | 13.2 |
| > 50 | CCOc1ccccc1C(=O)N(Cc1ccccc1-c1ccccc1)c1ccc(OC)nc1 [Example 90, N-Biphenyl-2-ylmethyl-2-ethoxy-N-(6-methoxy-pyridin-3-yl)-benzamide] | 31.7 |
| > 50 | COc1ccc(N(Cc2ccccc2-c2ccccc2)C(=O)c2ccccc2OC)cn1 [Example 91, N-Biphenyl-2-ylmethyl-2-methoxy-N-(6-methoxy-pyridin-3-yl)-benzamide] | 46.5 |
| > 50 | COc1ccccc1C(=O)N(Cc1cccnc1)Cc1ccccc1-c1ccccc1 [Example 92, N-Biphenyl-2-ylmethyl-2-methoxy-N-pyridin-3-ylmethyl-benzamide] | 6.3 |
| > 50 | O=C(c1cc2ccccc2s1)N(Cc1ccccc1-c1ccccc1)c1ccncc1 [Example 93, Benzo[b]thiophene-2-carboxylic acid biphenyl-2-ylmethyl-pyridin-4-yl-amide] | 10.5 |
| > 50 | COc1ccc(N(Cc2ccccc2-c2ccccc2)C(=O)c2ccccc2[N+](=O)[O-])cn1 [Example 94, N-Biphenyl-2-ylmethyl-N-(6-methoxy-pyridin-3-yl)-2-nitro-benzamide] | 24.8 |
| > 50 | CCOc1ccc(C(=O)N(Cc2ccccc2-c2ccccc2)c2ccc(OC)nc2)cc1 [Example 95, N-Biphenyl-2-ylmethyl-4-ethoxy-N-(6-methoxy-pyridin-3-yl)-benzamide] | 11.4 |
| > 50 | CCOc1ccccc1C(=O)N(Cc1cccnc1)Cc1ccccc1-c1ccccc1 [Example 96, N-Biphenyl-2-ylmethyl-2-ethoxy-N-pyridin-3-ylmethyl-benzamide] | 7.5 |
| > 50 | O=C(c1cccc2c1OCO2)N(Cc1cccnc1)Cc1ccccc1-c1ccccc1 [Example 97, Benzo[1,3]dioxole-4-carboxylic acid biphenyl-2-ylmethyl-pyridin-3-ylmethyl-amide] | 7.8 |
| > 50 | O=C(c1ccccc1Br)N(Cc1cccnc1)Cc1ccccc1-c1ccccc1 [Example 98, N-Biphenyl-2-ylmethyl-2-bromo-N-pyridin-3-ylmethyl-benzamide] | 8.5 |
| > 50 | O=C(c1sc2ccccc2c1Cl)N(Cc1cccnc1)Cc1ccccc1-c1ccccc1 [Example 99, 3-Chloro-benzo[b]thiophene-2-carboxylic acid biphenyl-2-ylmethyl-pyridin-3-ylmethyl-amide] | 24.7 |
| > 50 | O=C(c1ccccc1[N+](=O)[O-])N(Cc1cccnc1)Cc1ccccc1-c1ccccc1 [Example 100, N-Biphenyl-2-ylmethyl-2-nitro-N-pyridin-3-ylmethyl-benzamide] | 45.8 |
| > 50 | O=C(c1ccccc1OCc1ccccc1)N(Cc1cccnc1)Cc1ccccc1-c1ccccc1 [Example 101, 2-Benzyloxy-N-biphenyl-2-ylmethyl-N-pyridin-3-ylmethyl-benzamide] | 10.8 |

| Compound | IC50 [2] [µM] | IC50 [1] [µM] |
| --- | --- | --- |
| CCCCOc1ccc(N(Cc2ccc3c(c2)C(C)(C)CCC3(C)C)C(=O)CN(CC)CC)cn1 [Example 82, N-(6-Butoxy-pyridin-3-yl)-2-diethylamino-N-(5,5,8,8-tetramethyl-5,6,7,8-tetrahydro-naphthalen-2-ylmethyl)-acetamide] | > 50 | 36.8 |
| CCCCOc1ccc(N(Cc2ccc(C(C)(C)C)cc2)C(=O)CN(CC)CC)cn1 [Example 83, N-(6-Butoxy-pyridin-3-yl)-N-(4-tert-butyl-benzyl)-2-diethylamino-acetamide] | > 50 | 34 |
| CCCCOc1ccc(N(Cc2ccccc2-c2ccccc2)C(=O)CN(CC)CC)cn1 [Example 84, N-Biphenyl-2-ylmethyl-N-(6-butoxy-pyridin-3-yl)-2-diethylamino-acetamide] | > 50 | 43.7 |

From patent US6780883B2, “Amide inhibitors of microsomal triglyceride transfer protein” (Warner-Lambert Company, priority 1998, dated 2004)
